Earlier results on three molecules are cited in patent US9061040B2, “Combination therapy for breast cancer” (priority 2011, dated 2015).

One data set relates to prostate cancer. Conditions: male smokers.
Another data set has as its system advanced prostate cancer. As to conditions: supplemental intake greater than 400 IU/day; current smokers or quit within the past 10 years.
The conditions of data set [1]: 180-300 mg/day over 10 years.
In another data set the test system is liver cancer. As to conditions: 45 mg daily for two years, women with viral liver cirrhosis.

For the molecule vitamin E, the “reduction of prostate cancer cases” value in the data set on prostate cancer (50 mg daily versus no vitamin E) is listed as “one-third reduction”. Besides, the “new cases of prostate cancer among participants who received vitamin E” value in the data set on prostate cancer (50 mg daily, 5 to 8-year intervention, 147 cases without vitamin E, 246 in total) is 99 cases. For the same molecule, the “reduction in risk of advanced prostate cancer” value in the data set with advanced prostate cancer is 71%.
With `CC1=C(/C=C/C(C)=C/C=C/C(C)=C/C=C/C=C(C)/C=C/C=C(C)/C=C/C2=C(C)CCCC2(C)C)C(C)(C)CCC1` [β-carotene], the toxicity result in data set [1] was “did not show any toxicity”.
Regarding menaquinone [vitamin K2 (menaquinone)], the “less likely to develop liver cancer” value in the data set with liver cancer was approximately 90%.
